From patent US10807982B2, “Bromodomain inhibitors” (CELGENE QUANTICEL RESEARCH, INC., priority 2015, dated 2020)

Tests used:
[1] = system: NCI-H460, human non-small cell lung cancer cells; assay: Cell-MTS cellular proliferation assay, NCI-H460; assay type: cell-based; conditions: 168 hr incubation
Experimental: (§1) A colorimetric cellular proliferation assay (Cell-MTS assay) was performed to assess the ability of the heterocyclic derivative […] inhibitors disclosed herein to effect the proliferation of established cancer cell lines.
(§2) The Cell-MTS assay is a 7-day plate-based colorimetric assay which quantifies the amount of newly generated NADH in the presence or absence of test compound. The NADH level is used for the quantification of cancer cell proliferation.
(§3) Established cancer cell lines with a variety of driving mutations were obtained from American Type Culture Collection (ATCC) and routinely passaged according to ATCC protocols. For routine assay, these cells were seeded at densities which enabled ˜90% confluence after 7 days of culture. Raji, human Burkitts lymphoma cells, (cMYC) were seeded at 15,000 cells per 96-well. HL-60, human proleukemia cells, (NRAS, p16, p53, c-Myc amplified) were seeded at 5,000 cells per 96-well. NCI-H460, human non-small cell lung cancer cells. (KRAS, PIK3CA, STLK11, p16) were seeded at 3,000 cells per 96-well. 24 hr after plating, cells received an 11 point dilution of test compound with final concentration ranges from 100 µM to 2.0 nM. Cells were incubated in the presence of compound for 168 hr at 37° C., and 5% CO2. At the end of this incubation period, 80 µL of media is removed and 20 µL of CellTiter 96® AQueous Non-Radioactive Cell Proliferation Assay solution (Promega) was added. The cells were incubated until the OD490 was >0.6. IC50 values were calculated using the IDBS XLfit software package and include background subtracted OD490 values and normalization to DMSO controls. Cellular proliferation IC50 values were uploaded and archived using the Chem Biography Platform. Table 3 provides the results of the in vitro enzyme inhibition assay experiments and the in vitro cell-based assay experiments performed with the compounds disclosed herein: […]

[2] = system: HL-60, human proleukemia cells; assay: Cell-MTS cellular proliferation assay, HL-60; assay type: cell-based; conditions: HL-60 cells, 168 hr incubation
Experimental: as §1, §2, §3

[3] = system: Raji, human Burkitts lymphoma cells; assay: Cell-MTS cellular proliferation assay, Raji; assay type: cell-based; conditions: 168 hr incubation
Experimental: as §1, §2, §3

BRD4(BD1) = BRD4(BD1) (Homo sapiens (Human), UniProt O60885); assay: In vitro enzyme inhibition assay (BRD4 AlphaScreen, H4-tetraacetyl peptide); assay type: binding; conditions: BRD4(BD1) 2 nM, peptide 15 nM
Experimental: Determination of the IC50 for the heterocyclic derivative BRD4 inhibitors disclosed herein was performed as follows. His-tagged […] was cloned, expressed and purified to homogeneity. Filipakopoulos et al., 468 Nature 1067 (2010). BRD4 binding and inhibition was assessed by monitoring the interaction of biotinylated H4-tetraacetyl peptide (AnaSpec, H4K5/8/12/16(Ac), biotin—labeled) with the target using the AlphaScreen technology (Life Technologies). In a 384-well ProxiPlate BRD4(BD1) (2 nM final) was combined with peptide (15 nM final) in 50 mM HEPES (pH 7.3), 10 mM NaCl, 0.25 mM TCEP, 0.1% (w/v) BSA, and 0.005% (w/v) Brij-35 either in the presence of DMSO (final 0.4% DMSO) or compound dilution series in DMSO. After 20 min incubation at RT, Alpha streptavidin donor beads and Nickel Chelate acceptor beads were added to a final concentration of 5 μg/mL. After 2 hr of equilibration, plates were read on an Envision instrument and the IC50 was calculated using a four parameter non-linear curve fit.
The ability of the compounds disclosed herein to inhibit BRD4 activity was quantified and the respective IC50 value was determined.

Structure (SMILES) | IC50 (BRD4(BD1)) [nM] | further results
CCS(=O)(=O)Nc1cc(-c2cc(C)c(=O)n(C)c2)c2oc(C3CC3)cc2c1 | ≤ 500 | IC50 ([1]; Homo sapiens): 500 to 5000 nM; IC50 ([2]; Homo sapiens): ≤ 500 nM; IC50 ([3]; Homo sapiens): ≤ 500 nM
Cc1cc(-c2cc(S(C)(=O)=O)ccc2OCC2CC2)c2n(c1=O)CCC2F (racemic) [Example 90, (±)-8-[2-(cyclopropylmethoxy)-5-methylsulfonylphenyl]-1-fluoro-6-methyl-2,3-dihydro-1H-indolizin-5-one] | ≤ 500 | 
CCc1cc2cc(S(C)(=O)=O)cc(-c3cn(C)c(=O)c4ccccc34)c2o1 [4-(2-ethyl-5-(methylsulfonyl)benzofuran-7-yl)-2-methylisoquinolin-1(2H)-one, reference compound] | ≤ 500 | IC50 ([1]; Homo sapiens): 500 to 5000 nM; IC50 ([2]; Homo sapiens): ≤ 500 nM; IC50 ([3]; Homo sapiens): ≤ 500 nM
CN1Cc2ccc(-c3cn(C)c(=O)c4ccccc34)cc2S1(=O)=O [Example 1, 2-methyl-4-(2-methyl-1,1-dioxo-3H-1,2-benzthiazol-6-yl)isoquinolin-1-one] | 500 to 5000 | IC50 ([1]; Homo sapiens): 500 to 5000 nM; IC50 ([2]; Homo sapiens): 500 to 5000 nM; IC50 ([3]; Homo sapiens): 500 to 5000 nM
Cn1cc(-c2ccc3c(c2)S(=O)(=O)NC3)c2ccccc2c1=O [Example 2, 4-(1,1-dioxo-2,3-dihydro-1,2-benzothiazol-6-yl)-2-methylisoquinolin-1-one] | 500 to 5000 | IC50 ([1]; Homo sapiens): > 5000 nM; IC50 ([2]; Homo sapiens): 500 to 5000 nM; IC50 ([3]; Homo sapiens): > 5000 nM
COc1cc2c(cc1-c1cc(C)c(=O)n(C)c1)S(=O)(=O)N(C)C2 [Example 3, 5-(5-methoxy-2-methyl-1,1-dioxo-3H-1,2-benzothiazol-6-yl)-1,3-dimethylpyridin-2-one] | ≤ 500 | IC50 ([1]; Homo sapiens): > 5000 nM; IC50 ([2]; Homo sapiens): 500 to 5000 nM; IC50 ([3]; Homo sapiens): > 5000 nM
COc1cc2c(cc1-c1cn(C)c(=O)c3ccccc13)S(=O)(=O)N(C)C2 [Example 4, 4-(5-methoxy-2-methyl-1,1-dioxo-3H-1,2-benzothiazol-6-yl)-2-methylisoquinolin-1-one] | ≤ 500 | IC50 ([1]; Homo sapiens): 500 to 5000 nM; IC50 ([2]; Homo sapiens): ≤ 500 nM; IC50 ([3]; Homo sapiens): 500 to 5000 nM
CN1Cc2cc(Oc3ccc(F)cc3F)c(-c3ccc(=O)n(C)c3)cc2S1(=O)=O [Example 12, 5-[5-(2,4-difluorophenoxy)-2-methyl-1,1-dioxo-3H-1,2-benzothiazol-6-yl]-1-methylpyridin-2-one] | ≤ 500 | 
CCc1cc2cc(S(C)(=O)=O)cc(-c3cc(C)c(=O)n(C)c3)c2o1 [Example 21, 5-(2-ethyl-5-methylsulfonyl-1-benzofuran-7-yl)-1,3-dimethylpyridin-2-one] | ≤ 500 | 
Cc1cc(-c2nc(NS(C)(=O)=O)c3nc(C)n(Cc4ccc(F)cc4)c3n2)cn(C)c1=O [Example 22, N-[2-(1,5-dimethyl-6-oxopyridin-3-yl)-9-[(4-fluorophenyl)methyl]-8-methylpurin-6-yl]methanesulfonamide] | ≤ 500 | 
Cc1cc(-c2cc(S(C)(=O)=O)cc3cc(-c4ccccc4)oc23)cn(C)c1=O [Example 25, 1,3-dimethyl-5-(5-methylsulfonyl-2-phenyl-1-benzofuran-7-yl)pyridin-2-one] | ≤ 500 | 
Cc1cc(-c2cc(NS(C)(=O)=O)c3nc(C)n([C@H](C)c4ccccc4)c3c2)cn(C)c1=O [Example 45, N-[6-(1,5-dimethyl-6-oxopyridin-3-yl)-2-methyl-1-[(1R)-(1-phenylethyl)]benzimidazol-4-yl]methanesulfonamide] |  | IC50 [1]: 500 to 5000 nM; IC50 [2]: ≤ 500 nM; IC50 [3]: ≤ 500 nM
CCS(=O)(=O)Nc1cc(-c2cc(C)c(=O)n(C)c2)c2nc(C3CC3)n(C)c2c1 [Example 54, N-[2-cyclopropyl-7-(1,5-dimethyl-6-oxopyridin-3-yl)-3-methylbenzimidazol-5-yl]ethanesulfonamide] | ≤ 500 | 
CCS(=O)(=O)Nc1cc(-c2cn(C)c(=O)c3ccccc23)c2nc(C3CC3)n(C)c2c1 [Example 55, N-[2-cyclopropyl-3-methyl-7-(2-methyl-1-oxoisoquinolin-4-yl)benzimidazol-5-yl]ethanesulfonamide] | ≤ 500 | 
COc1cc(-c2cc(CS(C)(=O)=O)cc3nc(C4CC4)oc23)cn(C)c1=O [Example 63, 5-[2-cyclopropyl-5-(methylsulfonylmethyl)-1,3-benzoxazol-7-yl]-3-methoxy-1-methylpyridin-2-one] | ≤ 500 | 
CCS(=O)(=O)c1cc(-c2cc(C)c(=O)n(C)c2)cc2c1nc(C)n2CC1CC1 [Example 69, 5-[3-(cyclopropylmethyl)-7-ethylsulfonyl-2-methylbenzimidazol-5-yl]-1,3-dimethylpyridin-2-one] | ≤ 500 | 
CCS(=O)(=O)c1cc(-c2cc(OC)c(=O)n(C)c2)cc2c1nc(C)n2CC1CC1 [Example 70, 5-[3-(cyclopropylmethyl)-7-ethylsulfonyl-2-methylbenzimidazol-5-yl]-3-methoxy-1-methylpyridin-2-one] | ≤ 500 | 
CCc1nc2c(NS(C)(=O)=O)cc(-c3cc(C)c(=O)n(C)c3)cc2n1CC1CC1 [Example 74, N-[1-(cyclopropylmethyl)-6-(1,5-dimethyl-6-oxopyridin-3-yl)-2-ethylbenzimidazol-4-yl]methanesulfonamide] | ≤ 500 | 
CCn1c(-c2cc(C)c(=O)n(C)c2)cc2c(S(C)(=O)=O)cccc21 [Example 75, 5-(1-ethyl-4-methylsulfonylindol-2-yl)-1,3-dimethylpyridin-2-one] | ≤ 500 | 
Cc1cc(-c2cc3c(S(C)(=O)=O)cccc3n2CC2CC2)cn(C)c1=O [Example 76, 5-[1-(cyclopropylmethyl)-4-methylsulfonylindol-2-yl]-1,3-dimethylpyridin-2-one] | ≤ 500 | 
Cc1cc(-c2cc3c(S(C)(=O)=O)cccc3n2CCC2CC2)cn(C)c1=O [Example 77, 5-[1-(2-cyclopropylethyl)-4-methylsulfonylindol-2-yl]-1,3-dimethylpyridin-2-one] | ≤ 500 | 
Cn1cc(-c2cc3c(S(C)(=O)=O)cccc3n2CC2CC2)c2ccccc2c1=O [Example 78, 4-[1-(cyclopropylmethyl)-4-methylsulfonylindol-2-yl]-2-methylisoquinolin-1-one] | ≤ 500 | 
Cc1cc(-c2nc(NS(C)(=O)=O)c3nc(C)n(CC4CC4)c3n2)cn(C)c1=O [Example 81, N-[9-(cyclopropylmethyl)-2-(1,5-dimethyl-6-oxopyridin-3-yl)-8-methylpurin-6-yl]methanesulfonamide] | ≤ 500 | 
Cc1cc(-c2cc(S(C)(=O)=O)ccc2OCC2CC2)c2n(c1=O)CCC2(F)F [Example 89, 8-[2-(cyclopropylmethoxy)-5-methylsulfonylphenyl]-1,1-difluoro-6-methyl-2,3-dihydroindolizin-5-one] | 500 to 5000 | 
CCS(=O)(=O)Nc1cc(-c2cc(C)c(=O)n(C)c2)cc2c1nc(OC)n2CC1CC1 [Example 103, N-[1-(cyclopropylmethyl)-6-(1,5-dimethyl-6-oxopyridin-3-yl)-2-methoxybenzimidazol-4-yl]ethanesulfonamide] | ≤ 500 | 
Cc1cc(-c2cc(NS(C)(=O)=O)c3c(F)nn(Cc4ccccc4)c3c2)cn(C)c1=O [Example 104, N-[1-benzyl-6-(1,5-dimethyl-6-oxopyridin-3-yl)-3-fluoroindazol-4-yl]methanesulfonamide] | ≤ 500 | 
CCS(=O)(=O)Nc1cc(-c2cc(C)c(=O)n(C)c2)cc2c1c(F)nn2Cc1ccc(F)cc1 [Example 105, N-[6-(1,5-dimethyl-6-oxopyridin-3-yl)-3-fluoro-1-[(4-fluorophenyl)methyl]indazol-4-yl]ethanesulfonamide] | ≤ 500 | 
CCS(=O)(=O)Nc1cc(-c2cc(C)c(=O)n(C)c2)cc2c1c(F)nn2Cc1ccccc1 [Example 106, N-[1-benzyl-6-(1,5-dimethyl-6-oxopyridin-3-yl)-3-fluoroindazol-4-yl]ethanesulfonamide] | ≤ 500 | 
